Read-outs that look alike come from different tables or passages of the source.
Assays:
VHL (VBC complex) [1] = biological target: T1, VHL (VBC complex) (Homo sapiens, UniProt P40337); experiment: 19F CPMG NMR transverse relaxation rate (R2) and R2 contrast (C2) of spy molecule with and without protein; assay type: binding; conditions: for R2 contrast – C2: supplement 8.1
T1 construct: equimolar complex of pVHL54-213, eloB1-104 and; made in house; host or cells: E. coli
Text: Due to the large CSA of fluorine and the significant differences in the fluorine isotropic chemical shift (δF) between the free and bound states, the transverse relaxation rate (R2) is a well-established sensitive parameter to detect ligand binding.[4] Therefore, fluorine NMR experiments including a Carr–Purcell–Meiboom–Gill (CPMG) spin-echo filter[10] before acquisition were employed to monitor ligand binding to VHL by measuring peak intensity, as changes in other NMR parameters, such as chemical shift and peak width, were not as significant. The R2 values of the CF3 peak of each compound in the absence and in the presence of protein were determined by performing multiple ^19F CPMG experiments varying the CPMG filter (Fig. 2a). To quantify the shift in R2 upon binding, the R2 contrast (C2)[11] was determined. Ideally, a good spy molecule should have a large increase in R2 (fast relaxation) when protein is present, resulting in a large assay window for the competition experiments (Fig. 2b).
5. Measurement of the transverse relaxation rates by 19F CPMG NMR
All the NMR experiments were performed in a 500 MHz Bruker AVANCE N MR spectrometer equipped with a CPQCI -F cryoprobe. To measure the transverse relaxation rates (R 2), a solution of each spy molecule at 100 μM was prepared in 50 mM potassium phosphate monobasic (KH2PO4), pH 7.5, 100 mM NaCl, 1 mM TCEP, 2% (v/v) DMSO, 20% D2O and 10 µM trifluoroacetic acid (TFA). For each solution, 19F CPMG experiments […]
Due to the fast relaxation of molecules 21 and 22, these experiments were repeated with shorter CPMG filters (50, 100, 150, 200, 300, 400, 700 and 1000 ms). The fluorine peaks were integrated and plotted against the resp ective CPMG filters. The R 2 relaxation rates were obtained from fitting the data as a n exponential decay (GraphPad Prism 6) according to the equation below: [7]
Where I(t) is the 19F signal intensity or integral, t is the total CPMG filter in seconds, I(0) is the signal intensity when t = 0. To obtain the R2 upon addition of prot ein, all the experiments above were repeated in presence of VBC at 1 µM. Experiments were performed as triplicates and the R 2 contrasts (C2) were obtained according to the equation below: [8]
Where R2Free is the R2 obtained for the spy molecule free in solution and R2Observed is the R2 obtained with the spy molecule in presence of VBC. The raw data, fitting, R2 and C2 values for each spy molecule can be found in section 8.1. For the R2 measurements using molecule 19 at varied concentrations of spy molecule and protein, see section 8.2 . For the R2 measurements using spy molecules 6 and 11 (used to generate figures S 2, S3 and S4) see

[2] = biological target: T2, VHL (VBC complex: pVHL54-213, eloB1-104, eloC17-112) (Homo sapiens, UniProt P40337); experiment: Surface plasmon resonance (SPR) steady-state binding to immobilised biotinylated AviVBC; parameters: key to K D, SPR (footnote symbol instead of value): ^c: High responses in the SPR experiments, promiscuous or unspecific binders
T2 construct: equimolar complex of pVHL54-213, eloB1-104 and; made in house; host or cells: E. coli
Procedure: The KD of each compound to VHL was determined by surface plasmon resonance (SPR) experiments.
3. Protein expression, purification and biotinylation
The VHL E3 ligase is a multi-protein complex composed of five proteins: VHL protein (pVHL), elongin B (eloB), elongin C (eloC), Cullin-2 (Cul2) and Ring-box protein 1 (Rbx1).[3] Since the compounds developed in this work bind solely to the VHL protein, the VBC complex (equimolar complex of pVHL54-213, eloB1-104 and eloC17-112) was used in all experiments, as it can be readily expressed in E. coli with high yields,[4] while the full E3 ligase would require baculovirus-insect cells expression system.[5] The expression and purification of VBC was performed as described previously by our group[2] and employed directly in all NMR experiments.
For the surface plasmon resonance (SPR) experiments, a VBC complex containing an AviTagTM in the N-terminus of eloB (AviVBC) was purified using the same procedure described for VBC. The modified eloB/eloC expression plasmid was previously developed in-house by Dr. Michael Roy and kindly shared. The AviVBC complex was site-specifically biotinylated in the AviTag using the GST-BirA method previously described by […]
4. Surface plasmon resonance experiments
The SPR experiments were performed with a Biacore T200 instrument (GE Healthcare). All measurements were performed at 20 °C with buffer containing 10 mM HEPES, pH 7.5, 150 mM NaCl, 1 mM TCEP, 0.005% (v/v) Tween® 20 and 2% (v/v) dimethyl sulfoxide (DMSO). Biotinylated AviVBC (~0.5 μM) was immobilised at 22 °C onto a Series S sensor chip SA (GE Heathcare) to levels of approximately 3500-4000 response units […]
Solutions of each spy molecule were prepared in buffer at concentrations based on previous structure-activity relationship studies of VHL ligands (K D expected in the nanomolar range for structures like spy molecules 16 and 22, or in the milimolar range for spy molecules similar to 1 and 9). From this first screen, the binding affinities were roughly estimated using the Biacore T200 evaluation software (GE Healthcare), then measurements were repeated using concentrations above and below the KD obtained in the first round to generate better curves for fitting the data accurately. Contact and dissociation times varied across the different compounds tested, but in […]
dissociated from the surface in less than sixty seconds.
Data analysis was performed using the steady state responses of the double-referenced sensorgrams (raw data subtracted from blank and reference surface injections) obtained for each concentration tested. These responses were plotted against the respective concentrations and the data fitted to a 1: 1 binding model u sing the Biacore T200 evaluation software and the following equation: […]
Where Req is the steady-state response at a given concentration C. Deviations in Req were corrected by adding an ‘offset’ term to the equation. KD is the dissociation constant to be determined and RMAX is the maximum response expected for a given compound according to the equation below:
Where n is the stoichiometry of the interaction ( in this case, n = 1) and RProtein is the immobilization level of protein. MWCompound and MWProtein are the molecular weights of compound and protein, respectively. Sensorgrams and fitting parameters for all spy molecules can be found in section 7.

VHL (VBC complex) [3] = biological target: T1, VHL (VBC complex); experiment: 19F CPMG NMR transverse relaxation rate (R2) and R2 contrast (C2) of spy molecule with and without protein; assay type: binding; conditions: for R2 contrast – C2: section 8.3: spy molecules at 50 μM, VBC 1 μM
[4] = Spy molecule 100 μM, no protein
[5] = SPR, 20 °C, steady-state 1:1 fit, footnote b values fitted because RMAX was not reached experimentally, read-out: K D, SPR
[6] = SPR, responses too low, data could not be fitted, read-out: KD
[7] = SPR steady-state fit, supplement section 7, read-out: KD (Biacore T200 fit)
[8] = section 8.3: spy molecules at 50 μM in absence of VBC (sub-head prints Spy molecule 100 μM)
[9] = section 8.3: spy molecules at 50 μM in presence of VBC 1 μM (sub-head prints 100 μM)
[10] = SPR fit with very large error or RMAX above theoretical, unspecific / promiscuous binding suspected, read-out: KD (Biacore T200 fit, judged unreliable)

T1 sequence (P40337 54-213): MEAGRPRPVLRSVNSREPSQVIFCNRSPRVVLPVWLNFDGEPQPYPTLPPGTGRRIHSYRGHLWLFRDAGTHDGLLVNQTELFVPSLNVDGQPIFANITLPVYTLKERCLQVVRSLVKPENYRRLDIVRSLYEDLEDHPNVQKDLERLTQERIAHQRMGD
T1 sequence (Q15370 1-104 partner limits assumed): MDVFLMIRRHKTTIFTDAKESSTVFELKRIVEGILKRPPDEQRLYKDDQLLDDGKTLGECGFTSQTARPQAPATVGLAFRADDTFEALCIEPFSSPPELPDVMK
T1 sequence (Q15369 17-112 partner limits assumed): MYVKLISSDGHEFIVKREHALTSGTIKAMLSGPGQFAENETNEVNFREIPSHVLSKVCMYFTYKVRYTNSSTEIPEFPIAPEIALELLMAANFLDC
T2 sequence (P40337 54-213): as the sequence (P40337 54-213) above
T2 sequence (Q15370 1-104 partner limits assumed): as the sequence (Q15370 1-104 partner limits assumed) above
T2 sequence (Q15369 17-112 partner limits assumed): as the sequence (Q15369 17-112 partner limits assumed) above

Structure (SMILES)	R2 (VHL (VBC complex) [1]; Spy molecule 100 μM + VBC 1 μM)	R2 contrast – C2 (VHL (VBC complex) [1]; Spy molecule 100 μM + VBC 1 μM)	R2 (VHL (VBC complex) [1]; [4])	Kd [2, 5]	Kd [2, 6]	Kd [2, 7]	R2 (VHL (VBC complex) [3]; [8])	R2 (VHL (VBC complex) [3]; [9])	R2 contrast – C2 (VHL (VBC complex) [3])	K D, SPR (footnote symbol instead of value) ([2]; SPR)	Kd [2, 10]	SPR binding behaviour ([2]; SPR, supplement section 7)	binding kinetics / dissociation rates by SPR ([2]; SPR)
O=C(NCc1ccc(Br)c(C(F)(F)F)c1)[C@@H]1C[C@@H](O)CN1 [Compound 1]	1.115 ± 0.020 s⁻¹	4.1 ± 3.1%	1.069 ± 0.028 s⁻¹	> 1500 µM	> 1000 µM	–	–	–	–	–	–	–	–
CC(=O)N1C[C@H](O)C[C@H]1C(=O)NCc1ccc(Br)c(C(F)(F)F)c1 [Compound 2]	1.251 ± 0.021 s⁻¹	6.5 ± 2.2%	1.170 ± 0.019 s⁻¹	657 ± 49 µM	–	657 µM	–	–	–	–	–	–	–
CC(=O)NC(C(=O)N1CC(O)CC1C(=O)NCc1ccc(Br)c(C(F)(F)F)c1)C(C)(C)C (stereo not drawn) [Compound 4]	1.924 ± 0.037 s⁻¹	38.9 ± 2.5%	1.175 ± 0.027 s⁻¹	4.39 ± 0.12 µM	–	4.39 µM	–	–	–	–	–	–	–
Cc1ncsc1-c1ccc(CNC(=O)[C@@H]2C[C@@H](O)CN2)cc1C(F)(F)F [Compound 5]	0.936 ± 0.011 s⁻¹	2.2 ± 1.8%	0.915 ± 0.012 s⁻¹	> 1500 µM	> 1000 µM	–	–	–	–	–	–	–	–
CC(=O)N1C[C@H](O)C[C@H]1C(=O)NCc1ccc(-c2scnc2C)c(C(F)(F)F)c1 [Compound 6]	1.760 ± 0.039 s⁻¹	37.7 ± 2.6%	1.096 ± 0.020 s⁻¹	878 ± 98 µM	–	878 µM	1.255 ± 0.043 s⁻¹	1.951 ± 0.062 s⁻¹	35.7 ± 4.0%	–	–	–	–
Cc1ncsc1-c1ccc(CNC(=O)[C@@H]2C[C@@H](O)CN2C(=O)CC(C)(C)C)cc1C(F)(F)F [Compound 7]	3.614 ± 0.088 s⁻¹	62.1 ± 3.0%	1.368 ± 0.033 s⁻¹	67.1 ± 14 µM	–	67.1 µM	–	–	–	–	–	–	–
CC(=O)NC(C(=O)N1CC(O)CC1C(=O)NCc1ccc(-c2scnc2C)c(C(F)(F)F)c1)C(C)(C)C (stereo not drawn) [Compound 8]	1.639 ± 0.022 s⁻¹	17.7 ± 2.2%	1.349 ± 0.027 s⁻¹	2.99 ± 0.75 µM	–	2.99 µM	–	–	–	–	–	–	–
O=C(NCc1ccc(Br)cc1C(F)(F)F)[C@@H]1C[C@@H](O)CN1 [Compound 9]	1.279 ± 0.022 s⁻¹	0.9 ± 2.7%	1.268 ± 0.026 s⁻¹	> 1500 µM	> 1000 µM	–	–	–	–	–	–	–	–
CC(C)(C)CC(=O)N1C[C@H](O)C[C@H]1C(=O)NCc1ccc(Br)cc1C(F)(F)F [Compound 11]	2.740 ± 0.096 s⁻¹	47.9 ± 4.1%	1.427 ± 0.033 s⁻¹	110 ± 9 µM	–	110 µM	1.534 ± 0.071 s⁻¹	3.122 ± 0.145 s⁻¹	50.9 ± 5.7%	–	–	–	–
Cc1ncsc1-c1ccc(CNC(=O)[C@@H]2C[C@@H](O)CN2)c(C(F)(F)F)c1 [Compound 13]	1.609 ± 0.017 s⁻¹	3.2 ± 2.0%	1.558 ± 0.028 s⁻¹	–	–	–	–	–	–	^c	2530 µM	unspecific / promiscuous binding to the protein surface	–
CC(=O)N1C[C@H](O)C[C@H]1C(=O)NCc1ccc(-c2scnc2C)cc1C(F)(F)F [Compound 14]	3.425 ± 0.073 s⁻¹	53.9 ± 2.5%	1.579 ± 0.022 s⁻¹	–	–	–	–	–	–	^c	223 µM	bind unspecifically / promiscuously to the protein surface	–
Cc1ncsc1-c1ccc(CNC(=O)[C@@H]2C[C@@H](O)CN2C(=O)CC(C)(C)C)c(C(F)(F)F)c1 [Compound 15]	2.634 ± 0.058 s⁻¹	41.3 ± 2.7%	1.545 ± 0.035 s⁻¹	35.2 ± 7 µM	–	35.2 µM	–	–	–	–	–	–	–
CC(=O)NC(C(=O)N1CC(O)CC1C(=O)NCc1ccc(-c2scnc2C)cc1C(F)(F)F)C(C)(C)C (stereo not drawn) [Compound 16]	1.828 ± 0.031 s⁻¹	1.3 ± 2.4%	1.805 ± 0.032 s⁻¹	0.268 ± 0.03 µM	–	0.268 µM	–	–	–	–	–	–	too high to be determined accurately
O=C(NCc1ccc(Br)cc1)C1CC(O)CN1C(=O)C(F)(F)F (stereo not drawn) [Compound 17]	3.189 ± 0.066 s⁻¹	62.0 ± 2.6%	1.213 ± 0.028 s⁻¹	645 ± 100 µM	–	–	–	–	–	–	–	–	–
CC(C)(C)C(NC(=O)C(F)(F)F)C(=O)N1CC(O)CC1C(=O)NCc1ccc(Br)cc1 (stereo not drawn) [Compound 21]	4.109 ± 0.247 s⁻¹	3.7 ± 8.8%	3.959 ± 0.262 s⁻¹	0.447 ± 0.085 µM	–	0.447 µM	–	–	–	–	–	–	too high to be determined accurately
